What was measured:
[1] = Inhibition of sheep brain tubulin polymerization by fluorescence assay; parameters: species or system Ovis aries
[2] = organism: Ovis aries; experiment: Inhibition of sheep brain tubulin polymerization at 100 uM by fluorescence assay
[3] = tested on: HL-60(TB); experiment: Growth inhibition of human HL-60(TB) cells at 10^-5 M after 48 hrs by SRB assay; format: functional; details: HL-60, 48 h, read-out: GI
[4] = tested on: CAKI-1; experiment: Growth inhibition of human Caki1 cells at 10^-5 M after 48 hrs by SRB assay; format: functional; details: CAKI-1, 48 h, read-out: GI
[5] = tested on: SNB-75; experiment: Cytotoxicity against human SNB75 cells assessed as cell growth at 10^-5 M after 48 hrs by SRB assay; format: functional; details: SNB-75, 48 h, read-out: Activity
[6] = Growth inhibition of human HCT15 cells at 10^-5 M after 48 hrs by SRB assay; format: functional; details: HCT-15, 48 h, read-out: GI
[7] = Growth inhibition of human MOLT4 cells at 10^-5 M after 48 hrs by SRB assay; format: functional; details: MOLT-4, 48 h, read-out: GI
[8] = tested on: T47D; experiment: Growth inhibition of human T47D cells at 10^-5 M after 48 hrs by SRB assay; format: functional; details: Homo sapiens, T47D, 48 h; read-out: GI
[9] = Growth inhibition of human PC3 cells at 10^-5 M after 48 hrs by SRB assay; format: functional; details: PC-3, 48 h, read-out: GI
[10] = Growth inhibition of human SF295 cells at 10^-5 M after 48 hrs by SRB assay; format: functional; details: SF-295, 48 h, read-out: GI
[11] = tested on: MDA-MB-435; experiment: Growth inhibition of human MDA-MB-435 cells at 10^-5 M after 48 hrs by SRB assay; format: functional; details: MDA-MB-435, 48 h, read-out: GI
[12] = tested on: Malme-3M; experiment: Growth inhibition of human MALME-3M cells at 10^-5 M after 48 hrs by SRB assay; format: functional; details: read-out: GI
[13] = Growth inhibition of human HOP92 cells at 10^-5 M after 48 hrs by SRB assay; format: functional; details: HOP-92, 48 h, read-out: GI
[14] = tested on: A498; experiment: Growth inhibition of human A498 cells at 10^-5 M after 48 hrs by SRB assay; format: functional; details: A498, 48 h, read-out: GI
[15] = tested on: SNB-75; experiment: Growth inhibition of human SNB75 cells at 10^-5 M after 48 hrs by SRB assay; format: functional; details: SNB-75, 48 h, read-out: GI
[16] = tested on: NCI-H522; experiment: Growth inhibition of human NCI-H522 cells at 10^-5 M after 48 hrs by SRB assay; format: functional; details: NCI-H522, 48 h, read-out: GI
[17] = Growth inhibition of human HCT116 cells at 10^-5 M after 48 hrs by SRB assay; format: functional; details: HCT-116, 48 h, read-out: GI
[18] = tested on: MCF7; experiment: Growth inhibition of human MCF7 cells at 10^-5 M after 48 hrs by SRB assay; format: functional; details: MCF7, 48 h, read-out: GI

For `COC(=O)c1c(C(=O)OC)c2c(C)cc(C)cn2c1C(=O)c1ccc(OC)cc1`, the IC50 [1] was 81.2 µM and the inhibition [2] was 61%.

Molecule `COc1ccc(C(=O)c2cc(C#N)c3c(C)cc(C)cn23)cc1` has an inhibition of growth at 10 µM [3] of 0%, an inhibition of growth at 10 µM [4] of 28% and a growth at 10 µM [5] of -4%. For the same molecule, the inhibition of growth at 10 µM [6] was 27%, the inhibition of growth at 10 µM [7] was 1% and the inhibition of growth at 10 µM [8] was 60%. For the same molecule, the inhibition of growth at 10 µM [9] was 38%, the inhibition of growth at 10 µM [10] was 30% and the inhibition of growth at 10 µM [11] was 27%. For the same molecule, the inhibition of growth at 10 µM [12] was 35%, the inhibition of growth at 10 µM [13] was 43% and the inhibition of growth at 10 µM [14] was 53%. For the same molecule, the inhibition of growth at 10 µM [15] was 100%, the inhibition of growth at 10 µM [16] was 58% and the inhibition of growth at 10 µM [17] was 80%. For the same molecule, the inhibition of growth at 10 µM [18] was 46% and the inhibition [2] was 27%.

With `CCOC(=O)c1c(C(=O)OCC)c2cc(OC)ccn2c1C(=O)c1cc(OC)c(OC)c(OC)c1` the IC50 [1] was 90.4 µM and the inhibition [2] was 57%.

Work on `CCOC(=O)c1cc(C(=O)c2cc(OC)c(OC)c(OC)c2)n2cc(C)ccc12` yielded an IC50 [1] of 33.5 µM and an inhibition [2] of 73%.

Molecule `CCOC(=O)c1c(C(=O)OCC)c2cccc(C)n2c1C(=O)c1cc(OC)c(OC)c(OC)c1` has an IC50 [1] of 174 µM and an inhibition [2] of 58%.

Work on `CCOC(=O)c1cc(C(=O)c2cc(OC)c(OC)c(OC)c2)n2cccc(C)c12` yielded an IC50 [1] of 98.2 µM and an inhibition [2] of 55%.
